In US20250215030A1, “STAT MODULATORS AND USES THEREOF” (Recludix Pharma, Inc., priority 2022, published 2025):

Columns and labels:
[1] = target: T1, Recombinant STAT6 protein (STAT6(W123-T658)) (Homo sapiens, UniProt P42226); experiment: STAT6 Fluorescence Polarization (FP) Assay; type: binding; details: STAT6(W123-T658) 250 nM, probe 5-FAM-ApYKPFQDLI-NH2 2 nM, 45-minute incubation
T1 construct: STAT6(W123-T658)
T1 sequence (P42226 123-658): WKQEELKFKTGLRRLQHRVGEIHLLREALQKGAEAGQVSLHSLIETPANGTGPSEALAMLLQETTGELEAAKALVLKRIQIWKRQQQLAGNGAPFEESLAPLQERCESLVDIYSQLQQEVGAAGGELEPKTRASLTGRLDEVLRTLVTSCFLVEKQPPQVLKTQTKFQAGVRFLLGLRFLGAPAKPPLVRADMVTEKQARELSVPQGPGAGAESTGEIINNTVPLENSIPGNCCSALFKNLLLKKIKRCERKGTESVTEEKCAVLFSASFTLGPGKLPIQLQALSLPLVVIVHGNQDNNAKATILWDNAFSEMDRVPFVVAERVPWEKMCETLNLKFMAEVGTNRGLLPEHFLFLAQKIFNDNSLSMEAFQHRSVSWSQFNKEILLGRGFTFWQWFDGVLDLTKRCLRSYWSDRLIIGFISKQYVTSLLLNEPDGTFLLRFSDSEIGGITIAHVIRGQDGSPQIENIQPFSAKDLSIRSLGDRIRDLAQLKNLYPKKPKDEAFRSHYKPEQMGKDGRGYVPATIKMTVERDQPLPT
Method: STAT6 Fluorescence Polarization (FP) Assay
An FP assay was developed to determine IC50 values for test substances. Recombinant STAT6 protein (STAT6(W123-T658)) at 250 nM was combined with a fluorescently labeled, phosphotyrosine peptide probe (5-FAM-ApYKPFQDLI-NH2) at 2 nM in FP buffer (10 mM HEPES pH 7.4, 50 mM NaCl, 1 mM EDTA, 0.05% Tween 20, 2 mM DTT). 50 μL of STAT6-probe mixture was added to serial diluted compounds in black, 96-well plates (Greiner BioOne 655076) to a final concentration of 1% DMSO. Reaction components were mixed, and FP was measured after 45-minute incubation at room temperature using a Tecan Spark multimode plate reader. FP signal (mP) was plotted against the log concentration of the test substances and IC50 values were calculated by nonlinear regression analysis using GraphPad Prism software. For STAT6 FP assay, A=≤300 nM; B=>300-3000 nM; C=>3-30 μM; and D=>30 μM.

[2] = target: T2, Recombinant STAT3 protein (STAT3(G127-I722)) (Homo sapiens, UniProt P40763); experiment: STAT3 Fluorescence Polarization (FP) Assay; type: binding; details: STAT3(G127-I722) 25 nM, probe 5-FAM-GpYLPQTV-NH2 2 nM, 45-minute incubation
T2 construct: STAT3(G127-I722)
T2 sequence (P40763 127-722, species assumed): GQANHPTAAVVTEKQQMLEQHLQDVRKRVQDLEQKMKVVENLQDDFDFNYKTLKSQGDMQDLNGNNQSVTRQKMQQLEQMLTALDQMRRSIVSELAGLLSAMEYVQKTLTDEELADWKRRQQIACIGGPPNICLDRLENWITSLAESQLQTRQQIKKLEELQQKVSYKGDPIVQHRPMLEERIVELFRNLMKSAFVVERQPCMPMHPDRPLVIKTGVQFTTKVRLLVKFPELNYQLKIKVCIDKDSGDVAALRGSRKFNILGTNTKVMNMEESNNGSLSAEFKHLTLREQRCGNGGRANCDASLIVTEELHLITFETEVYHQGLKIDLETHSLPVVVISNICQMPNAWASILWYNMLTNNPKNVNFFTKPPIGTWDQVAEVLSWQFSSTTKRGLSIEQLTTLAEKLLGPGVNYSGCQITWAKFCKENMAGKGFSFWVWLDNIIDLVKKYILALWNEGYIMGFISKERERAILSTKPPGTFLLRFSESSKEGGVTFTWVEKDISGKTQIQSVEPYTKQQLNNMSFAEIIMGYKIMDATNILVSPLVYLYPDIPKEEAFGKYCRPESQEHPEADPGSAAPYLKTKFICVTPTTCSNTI
Method: STAT3 Fluorescence Polarization (FP) Assay
An FP assay was developed to determine IC50 values for test substances. Recombinant STAT3 protein (STAT3(G127-I722)) at 25 nM was combined with a fluorescently labeled, phosphotyrosine peptide probe (5-FAM-GpYLPQTV-NH2) at 2 nM in FP buffer (10 mM HEPES pH 7.4, 50 mM NaCl, 1 mM EDTA, 0.05% Tween 20, 2 mM DTT). 50 μL of STAT3-probe mixture was added to serial diluted compounds in black, 96-well plates (Greiner BioOne 655076) to a final concentration of 1% DMSO. Reaction components were mixed, and FP was measured after 45-minute incubation at room temperature using a Tecan Spark multimode plate reader. FP signal (mP) was plotted against the log concentration of the test substances and IC50 values were calculated by nonlinear regression analysis using GraphPad Prism software. For STAT3 FP assay, A=≤100 nM; B=>100-1000 nM; C=>1-10 μM; and D=>10 μM.

Structure (SMILES)	IC50 [1]	IC50 [2]
N#C[C@@H]1CN(C(=O)[C@@H]2CC[C@@H]3C[C@H]4C[C@H]4C[C@H](NC(=O)c4cc5cc(C(F)(F)P(=O)(O)O)ccc5s4)C(=O)N32)C[C@H]1c1ccccc1 (relative stereo) [Compound 10, ((2-(((3S,6S,7aS,8aR,9aR)-3-((rel-trans)-3-cyano-4-phenylpyrrolidine-1-carbonyl)-5-oxodecahydro-1H-cyclopropa[d]pyrrolo[1,2-a]azocin-6-yl)carbamoyl)benzo[b]thiophen-5-yl)difluoromethyl)phosphonic acid]	≤ 300 nM	100 to 1000 nM
N#C[C@@H]1CN(C(=O)[C@@H]2CC[C@@H]3C[C@@H]4C[C@@H]4C[C@H](NC(=O)c4cc5cc(C(F)(F)P(=O)(O)O)ccc5s4)C(=O)N32)C[C@H]1c1ccccc1 (relative stereo) [Compound 11, ((2-(((3S,6S,7aR,8aS,9aR)-3-((rel-trans)-3-cyano-4-phenylpyrrolidine-1-carbonyl)-5-oxodecahydro-1H-cyclopropa[d]pyrrolo[1,2-a]azocin-6-yl)carbamoyl)benzo[b]thiophen-5-yl)difluoromethyl)phosphonic acid]	≤ 300 nM	100 to 1000 nM
N#C[C@H]1CN(C(=O)[C@@H]2CC[C@@H]3C[C@H]4C[C@H]4C[C@H](NC(=O)c4cc5cc(C(F)(F)P(=O)(O)O)ccc5s4)C(=O)N32)C[C@@]12C(=O)Nc1ccccc12 (single isomer, unassigned) [Compound 27]	300 to 3000 nM	100 to 1000 nM
N#C[C@@H]1CN(C(=O)[C@@H]2CC[C@@H]3C[C@H]4C[C@H]4C[C@H](NC(=O)c4cc5cc(C(F)(F)P(=O)(O)O)ccc5s4)C(=O)N32)C[C@]12C(=O)Nc1ccccc12 (single isomer, unassigned) [Compound 28]	≤ 300 nM	< 100 nM
N#C[C@@H]1CN(C(=O)[C@@H]2CC[C@@H]3[C@H]4C[C@H]4C[C@H](NC(=O)c4cc5cc(C(F)(F)P(=O)(O)O)ccc5s4)C(=O)N32)C[C@H]1c1ccccc1 (single isomer, unassigned) [Compound 66, ((2-(((3S,6S,7aS,8aS,8bR)-3-((3S,4R or 3R,4S)-3-cyano-4-phenylpyrrolidine-1-carbonyl)-5-oxodecahydrocyclopropa[c]pyrrolo[1,2-a]azepin-6-yl)carbamoyl)benzo[b]thiophen-5-yl)difluoromethyl)phosphonic acid]	≤ 300 nM	1000 to 10000 nM
O=C(N[C@H]1C[C@@H]2C[C@@H]2C[C@H]2CC[C@@H](C(=O)N3CC[C@@H](C(=O)N4CCOCC4)C3)N2C1=O)c1cc2cc(C(F)(F)P(=O)(O)O)ccc2s1 (single isomer, unassigned) [Compound 98]	3000 to 30000 nM	100 to 1000 nM
O=C(N[C@H]1C[C@@H]2C[C@@H]2C[C@H]2CC[C@@H](C(=O)N3CC[C@H](C(=O)N4CCOCC4)C3)N2C1=O)c1cc2cc(C(F)(F)P(=O)(O)O)ccc2s1 (single isomer, unassigned) [Compound 99]	3000 to 30000 nM	100 to 1000 nM
O=C(N[C@H]1C[C@H]2C[C@H]2C[C@H]2CC[C@@H](C(=O)N3CC(c4ccon4)C3)N2C1=O)c1cc2cc([C@@H](F)P(=O)(O)O)ccc2s1 (single isomer, unassigned) [Example 344]	3000 to 30000 nM	< 100 nM
CCc1ccncc1C1CN(C(=O)[C@@H]2CC[C@@H]3C[C@@H]4C[C@@H]4C[C@H](NC(=O)c4cc5cc([C@H](F)P(=O)(O)O)ccc5s4)C(=O)N32)C1 (single isomer, unassigned) [Example 345]	3000 to 30000 nM	< 100 nM
O=C(N[C@H]1C[C@H]2C[C@H]2C[C@H]2CC[C@@H](C(=O)N3CC(c4ccon4)C3)N2C1=O)c1cc2cc([C@H](F)P(=O)(O)O)ccc2s1 (single isomer, unassigned) [Example 346]	3000 to 30000 nM	< 100 nM
COc1ccncc1C1CN(C(=O)[C@@H]2CC[C@@H]3C[C@@H]4C[C@@H]4C[C@H](NC(=O)c4cc5cc([C@H](F)P(=O)(O)O)ccc5s4)C(=O)N32)C1 (single isomer, unassigned) [Example 353]	3000 to 30000 nM	< 100 nM
COc1ccncc1C1CN(C(=O)[C@@H]2CC[C@@H]3C[C@@H]4C[C@@H]4C[C@H](NC(=O)c4cc5cc([C@@H](F)P(=O)(O)O)ccc5s4)C(=O)N32)C1 (single isomer, unassigned) [Example 354]	> 30000 nM	< 100 nM
N#CC1(c2ccccn2)CN(C(=O)[C@@H]2CC[C@@H]3C[C@@H]4C[C@@H]4C[C@H](NC(=O)c4cc5cc([C@H](F)P(=O)(O)O)ccc5s4)C(=O)N32)C1 (single isomer, unassigned) [Example 355]	300 to 3000 nM	< 100 nM
N#CC1(c2ccccn2)CN(C(=O)[C@@H]2CC[C@@H]3C[C@@H]4C[C@@H]4C[C@H](NC(=O)c4cc5cc([C@@H](F)P(=O)(O)O)ccc5s4)C(=O)N32)C1 (single isomer, unassigned) [Example 356]	3000 to 30000 nM	< 100 nM
CCc1ccncc1C1CN(C(=O)[C@@H]2CC[C@@H]3C[C@@H]4C[C@@H]4C[C@H](NC(=O)c4cc5cc([C@@H](F)P(=O)(O)O)ccc5s4)C(=O)N32)C1 (single isomer, unassigned) [Example 357]	3000 to 30000 nM	< 100 nM
Cc1cccc(C2CN(C(=O)[C@@H]3CC[C@@H]4C[C@@H]5C[C@@H]5C[C@H](NC(=O)c5cc6cc([C@H](F)P(=O)(O)O)ccc6s5)C(=O)N43)C2)n1 (single isomer, unassigned) [Example 370]	3000 to 30000 nM	< 100 nM
Cc1cccc(C2CN(C(=O)[C@@H]3CC[C@@H]4C[C@@H]5C[C@@H]5C[C@H](NC(=O)c5cc6cc([C@@H](F)P(=O)(O)O)ccc6s5)C(=O)N43)C2)n1 (single isomer, unassigned) [Example 371]	3000 to 30000 nM	< 100 nM
O=C(N[C@H]1C[C@H]2C[C@H]2C[C@H]2CC[C@@H](C(=O)N3CC(c4cnccc4N4CCOCC4)C3)N2C1=O)c1cc2cc([C@@H](F)P(=O)(O)O)ccc2s1 (single isomer, unassigned) [Example 391]	> 30000 nM	< 100 nM
CN(C)c1ccncc1C1CN(C(=O)[C@@H]2CC[C@@H]3C[C@@H]4C[C@@H]4C[C@H](NC(=O)c4cc5cc([C@@H](F)P(=O)(O)O)ccc5s4)C(=O)N32)C1 (single isomer, unassigned) [Example 394]	3000 to 30000 nM	< 100 nM
O=C(N[C@H]1C[C@@H]2C[C@@H]2CC2CC[C@@H](C(=O)N3CC(c4cncnc4N4CCC4)C3)N2C1=O)c1cc2cc([C@@H](F)P(=O)(O)O)ccc2s1 (single isomer, unassigned) [Example 401]	3000 to 30000 nM	< 100 nM
O=C(N[C@H]1C[C@@H]2C[C@@H]2CC2CC[C@@H](C(=O)N3CC(c4cncnc4N4CCC4)C3)N2C1=O)c1cc2cc([C@H](F)P(=O)(O)O)ccc2s1 (single isomer, unassigned) [Example 402]	300 to 3000 nM	< 100 nM
CN1CCN(c2ccncc2C2CN(C(=O)[C@@H]3CC[C@@H]4C[C@H]5C[C@H]5C[C@H](NC(=O)c5cc6cc([C@H](F)P(=O)(O)O)ccc6s5)C(=O)N43)C2)CC1 (single isomer, unassigned) [Example 403]	3000 to 30000 nM	< 100 nM
CN1CCN(c2ccncc2C2CN(C(=O)[C@@H]3CC[C@@H]4C[C@H]5C[C@H]5C[C@H](NC(=O)c5cc6cc([C@@H](F)P(=O)(O)O)ccc6s5)C(=O)N43)C2)CC1 (single isomer, unassigned) [Example 404]	> 30000 nM	< 100 nM
O=C(N[C@H]1C[C@@H]2C[C@@H]2C[C@H]2CC[C@@H](C(=O)N3CC(c4cnccc4N4CCOCC4)C3)N2C1=O)c1cc2cc([C@@H](F)P(=O)(O)O)ccc2s1 (single isomer, unassigned) [Example 405]	3000 to 30000 nM	< 100 nM
